The source of these data is PubChem BioAssay (NCI).

Some test systems named below: ACHN renal; HCC-2998 colon; HT29 colon; IGROV1 ovarian; K-562 leukemia; MDA-MB-435; OVCAR-4 ovarian; SN12C renal; SR leukemia; SW-620 colon.
What all share (assay): NCI-60 cell line screen, 48 h

Structures are written as SMILES. Several values for one entry are separate records, joined by “and”; a condition that tells them apart may be missing. Equal entries are not always repeated.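 Briefly, cells in 96-well plates were exposed to five compound concentrations for 48 h, and endpoints were estimated by linear interpolation. GI50 = concentration required for 50% inhibition of growth. TGI: total growth inhibition.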 A value given as a limit tells only on which side of the number the result lay.

With `CCOC(=O)c1c(C)n(Cc2ccc(Cl)cc2Cl)c2c1cc(O)c1[nH]c(Cc3ccccc3)nc12`, the GI50 was 3.49 µM in the test on ACHN renal; 2.41 µM in the test on HCC-2998 colon; 3.89 µM in the test on HT29 colon; 3.22 µM with IGROV1 ovarian; 2.94 µM with K-562 leukemia; 5.86 µM in the test with MDA-MB-435. Also, the GI50 was 4.15 µM in the test with OVCAR-4 ovarian, 4 µM in the test on SN12C renal, 0.612 µM in the test with SR leukemia and 2.21 µM in the test on SW-620 colon. In addition, the TGI in the test with ACHN renal was determined as 13.4 µM; with HCC-2998 colon, 5.23 µM; with HT29 colon, 17.3 µM; in the test on IGROV1 ovarian, 15.8 µM; in the test with K-562 leukemia, 10.7 µM; in the test on MDA-MB-435, 24.7 µM. For the same molecule, the TGI in the test on OVCAR-4 ovarian came out at 16.7 µM; in the test with SN12C renal, 12.1 µM; in the test with SR leukemia it was 2.22 µM; in the test with SW-620 colon, 6.02 µM.

For `CCN(CC)CCNc1ccc2nc(C)n3c4ccc(OC)cc4c(=O)c1c23`, the TGI with ACHN renal came out at 13.3 µM; in the test on HCC-2998 colon, 6.2 µM; in the test with HT29 colon, 1.99 µM; in the test on IGROV1 ovarian, 4.26 µM; with K-562 leukemia, 4.13 µM; in the test on MDA-MB-435, 27.1 µM. Moreover, the TGI in the test with OVCAR-4 ovarian worked out at 8.25 µM; in the test with SN12C renal it was 15.2 µM; in the test on SR leukemia, 0.56 µM; in the test on SW-620 colon it was 9.27 µM.

As to `CCc1n(Cc2ccc3ccccc3c2)cc[n+]1Cc1ccc2ccccc2c1`, the GI50 with ACHN renal was 2.87 µM; with HCC-2998 colon, 0.518 µM; with HT29 colon, 0.563 µM; in the test with IGROV1 ovarian, 0.736 µM; with K-562 leukemia, 0.404 µM; with MDA-MB-435 it was 0.424 µM. Also, the GI50 with OVCAR-4 ovarian was 0.307 µM; in the test on SN12C renal, 0.572 µM; with SR leukemia, 0.528 µM; with SW-620 colon it was 0.964 µM. The TGI with ACHN renal is 10 µM; with HCC-2998 colon, 1.85 µM; with HT29 colon, 2.23 µM; in the test on IGROV1 ovarian, 2.32 µM; with K-562 leukemia it was 2.27 µM; in the test on MDA-MB-435, 1.57 µM. The TGI in the test with OVCAR-4 ovarian worked out at 1.28 µM; in the test on SN12C renal, 2.12 µM; in the test on SR leukemia, 4.28 µM; in the test with SW-620 colon, 2.55 µM.

In the case of `O=C1C=CC(=O)N1c1ccc2ccccc2c1`, the GI50 is 4.66 µM with ACHN renal; 17.8 µM in the test with HCC-2998 colon; 4.94 µM in the test with HT29 colon; 16.6 µM with IGROV1 ovarian; 3.45 µM in the test on K-562 leukemia; 16.9 µM in the test on MDA-MB-435. Also, the GI50 in the test on OVCAR-4 ovarian was 8.92 µM; in the test on SN12C renal, 16.6 µM; with SR leukemia, 2.6 µM; with SW-620 colon, 1.79 µM. Moreover, the TGI was 15.4 µM in the test with ACHN renal; 32.8 µM in the test with HCC-2998 colon; 27.8 µM in the test on HT29 colon; 52 µM with IGROV1 ovarian; above 100 µM with K-562 leukemia; 32.2 µM in the test with MDA-MB-435. Also, the TGI amounted to 34.1 µM in the test on OVCAR-4 ovarian, 34.1 µM in the test on SN12C renal, 7.33 µM with SR leukemia and 3.62 µM in the test with SW-620 colon.

Regarding `O=C(Nc1ccc(Br)cc1)c1cc(Br)ccc1O`, the GI50 with ACHN renal was 0.61 µM and 1.47 µM; in the test on HCC-2998 colon, 2.36 µM and 3.46 µM; in the test with HT29 colon it was 3.11 µM and 3.38 µM; in the test on IGROV1 ovarian, 0.346 µM and 0.749 µM; in the test with K-562 leukemia it was 0.437 µM and 0.419 µM; in the test on MDA-MB-435, 0.43 µM and 1.38 µM. The GI50 in the test on OVCAR-4 ovarian was 0.452 µM and 1.17 µM; with SN12C renal it was 0.252 µM and 1.42 µM; in the test with SR leukemia it was 0.291 µM and 0.554 µM; in the test with SW-620 colon, 0.986 µM and 2 µM. Moreover, the TGI is above 64 µM in the test with ACHN renal; 7.67 µM and 35.7 µM in the test on HCC-2998 colon; 16 µM and 39 µM in the test on HT29 colon; 22.8 µM and 17 µM with IGROV1 ovarian; 3.23 µM and 5.66 µM with MDA-MB-435; above 100 µM in the test on OVCAR-4 ovarian. The TGI is 5.14 µM and 8.36 µM in the test with SN12C renal; 3.23 µM in the test with SR leukemia; 8.61 µM and 6.87 µM in the test with SW-620 colon.

Turning to `CCOC(=O)c1ccc(N[C@@H]2c3cc4c(cc3C(c3cc(OC)c(O)c(OC)c3)[C@H]3C(=O)OCC32)OCO4)cc1` (stereo partly specified), the GI50 is 0.161 µM in the test with ACHN renal; 0.868 µM with HCC-2998 colon; 0.949 µM with HT29 colon; 0.962 µM in the test with IGROV1 ovarian; 0.662 µM and 1.44 µM with K-562 leukemia; 0.249 µM in the test on SN12C renal. Besides, the GI50 is 0.0303 µM in the test with SR leukemia and 0.536 µM in the test on SW-620 colon. In addition, the TGI in the test with ACHN renal was 0.75 µM and 1.44 µM; with HCC-2998 colon, 3.69 µM; with HT29 colon it was 6.92 µM; with IGROV1 ovarian, 10 µM; in the test with K-562 leukemia, 27.2 µM; with MDA-MB-435, above 100 µM. For the same molecule, the TGI with OVCAR-4 ovarian was 12.6 µM; in the test with SN12C renal it was 0.955 µM and 3.91 µM; with SR leukemia, 0.32 µM and 0.742 µM; in the test with SW-620 colon it was 28.4 µM.

Turning to `Cc1ccc(S(=O)(=O)NC(=O)Nc2ncn[nH]2)cc1`, the TGI in the test on ACHN renal, in the test on HCC-2998 colon, in the test on HT29 colon, in the test on IGROV1 ovarian, in the test on K-562 leukemia and with MDA-MB-435 was above 100 µM throughout. The TGI in the test on OVCAR-4 ovarian, in the test with SN12C renal, in the test on SR leukemia and in the test on SW-620 colon was above 100 µM in each case.

Consider `COc1cccc(C2=C(c3cn(C)c4c(C)cccc34)C(=O)NC2=O)c1`, for which the GI50 in the test on ACHN renal was 16.8 µM; in the test on HCC-2998 colon it was above 25 µM; with HT29 colon, above 19.6 µM; in the test on IGROV1 ovarian, above 25 µM; in the test with K-562 leukemia, 12.8 µM; in the test on MDA-MB-435, 18.2 µM. Moreover, the GI50 is above 14.3 µM in the test on OVCAR-4 ovarian, above 25 µM in the test with SN12C renal, above 19.6 µM in the test with SR leukemia and above 25 µM in the test with SW-620 colon. Also, the TGI with ACHN renal, in the test with HCC-2998 colon, with HT29 colon, in the test with IGROV1 ovarian, with K-562 leukemia and in the test with MDA-MB-435 was above 25 µM throughout. Further, the TGI in the test with OVCAR-4 ovarian, in the test on SN12C renal, in the test with SR leukemia and in the test on SW-620 colon was above 25 µM throughout.

Consider `O=c1oc2cc(O)ccc2cc1-c1nc2ccccc2o1`, for which the TGI with ACHN renal, with HCC-2998 colon, in the test on HT29 colon, with IGROV1 ovarian, in the test on K-562 leukemia and in the test with MDA-MB-435 was above 100 µM in each case. The TGI in the test on OVCAR-4 ovarian, in the test with SN12C renal, in the test with SR leukemia and in the test on SW-620 colon was above 100 µM in each case.

Take `Nc1ncnc2c1ncn2C1OC(F)(COS(N)(=O)=O)C(O)C1O` (stereo unspecified): the GI50 in the test with ACHN renal, in the test with HCC-2998 colon, with HT29 colon, with IGROV1 ovarian, in the test on K-562 leukemia and in the test on MDA-MB-435 was above 100 µM each time. The GI50 with OVCAR-4 ovarian, in the test on SN12C renal, with SR leukemia and in the test with SW-620 colon was above 100 µM throughout. The TGI in the test with ACHN renal, in the test on HCC-2998 colon, in the test on HT29 colon, in the test with IGROV1 ovarian, with K-562 leukemia and in the test with MDA-MB-435 was above 100 µM throughout. In addition, the TGI in the test with OVCAR-4 ovarian, in the test on SN12C renal, with SR leukemia and in the test on SW-620 colon was above 100 µM throughout.

With `CC12CC(Br)(Br)C(=O)C3C1CCCC32`, the TGI in the test with ACHN renal was determined as 15.5 µM; in the test with HCC-2998 colon, 13.8 µM; in the test with HT29 colon, 24.2 µM; in the test with IGROV1 ovarian, 27.2 µM; in the test with K-562 leukemia it was 11.7 µM; in the test with MDA-MB-435, 8.78 µM. Further, the TGI is 10.4 µM in the test on OVCAR-4 ovarian, 11.4 µM with SN12C renal, 13.6 µM in the test with SR leukemia and 5.22 µM in the test with SW-620 colon.

`C(#Cc1ccccc1C#Cc1cnccn1)c1cnccn1`: the GI50 in the test with ACHN renal was 19.2 µM; in the test on HCC-2998 colon, 32.2 µM; with HT29 colon, 41.8 µM; with IGROV1 ovarian, above 22.9 µM; with K-562 leukemia, 9.02 µM; in the test on MDA-MB-435, 18.5 µM. Further, the GI50 in the test with OVCAR-4 ovarian was 38.3 µM; in the test with SN12C renal it was 24.1 µM; in the test on SR leukemia, 6.81 µM; in the test with SW-620 colon, 40.2 µM. The TGI is above 68.9 µM with ACHN renal; above 100 µM in the test with HCC-2998 colon; above 100 µM in the test on HT29 colon; above 47.9 µM in the test on IGROV1 ovarian; above 44.3 µM with K-562 leukemia; 51.8 µM in the test on MDA-MB-435. The TGI with OVCAR-4 ovarian is above 100 µM; in the test with SN12C renal, above 87.1 µM; in the test on SR leukemia, above 100 µM; with SW-620 colon, above 100 µM.

Regarding `CCCCCCCCCCCCNCCCc1ccccc1`, the GI50 is 1.8 µM in the test with ACHN renal; 1.75 µM with HCC-2998 colon; 1.75 µM in the test with HT29 colon; 1.93 µM in the test with IGROV1 ovarian; 1.89 µM in the test with K-562 leukemia; 1.73 µM in the test on MDA-MB-435. Moreover, the GI50 in the test with OVCAR-4 ovarian was 1.57 µM; in the test with SN12C renal it was 1.63 µM; in the test on SR leukemia, 1.2 µM; in the test on SW-620 colon it was 1.64 µM. Also, the TGI came to 3.5 µM in the test on ACHN renal; 3.23 µM in the test with HCC-2998 colon; 3.21 µM with HT29 colon; 3.49 µM in the test with IGROV1 ovarian; 4.54 µM in the test with K-562 leukemia; 3.17 µM in the test on MDA-MB-435. Further, the TGI came out at 2.98 µM with OVCAR-4 ovarian, 3.27 µM with SN12C renal, 3.56 µM with SR leukemia and 3.28 µM with SW-620 colon.

For `COc1cccc2c1C(=O)c1c(O)c3c(c(O)c1C2=O)C[C@@](O)(C(=O)CO)C[C@@H]3OC1CC2C(OCN2CN2COC3C(C)OC(O[C@H]4C[C@](O)(C(=O)CO)Cc5c(O)c6c(c(O)c54)C(=O)c4c(OC)cccc4C6=O)CC32)C(C)O1` (stereo partly specified), the GI50 was 0.00194 µM in the test with ACHN renal; 0.0138 µM in the test on HCC-2998 colon; 0.00717 µM in the test on HT29 colon; 0.0014 µM with IGROV1 ovarian; 0.00402 µM in the test on K-562 leukemia; 0.013 µM in the test with MDA-MB-435. Further, the GI50 in the test on OVCAR-4 ovarian was 0.0222 µM; in the test with SN12C renal, 0.00924 µM; with SR leukemia, 0.000289 µM; with SW-620 colon it was 0.00577 µM. The TGI was determined as 0.0345 µM with ACHN renal; 0.0441 µM with HCC-2998 colon; 0.115 µM with HT29 colon; 0.127 µM in the test on IGROV1 ovarian; 0.0391 µM with MDA-MB-435; 0.0593 µM with OVCAR-4 ovarian. Also, the TGI in the test on SN12C renal is 0.101 µM; in the test on SR leukemia it was 0.00476 µM; in the test with SW-620 colon, above 1 µM.
